Data published in patent US12358999B2, “Protein recognizing drug moiety of antibody-drug conjugate” (DAIICHI SANKYO COMPANY, LIMITED, priority 2018, dated 2025).

Columns and labels:
[1] = tested on: mouse antibody 1A3; assay: Competitive inhibition with HER2-ADC (I), chemical structure recognized by mouse antibody 1A3 (Gyrolab); type: binding; details: compound 1 and 100 μg/mL dilution solutions; response at HER2-ADC (I) 250 ng/mL
Source text: The chemical structure to be recognized by mouse antibody 1A3 was checked by competitive inhibition with HER2-ADC (I) using Gyrolab xP workstation (GYROS PROTEIN Technologies). As the compound for use in competitive inhibition, compound (1), compound (2), compound (7), compound (8), compound (9), compound (10), compound (11), Topotecan and Rubitecan were selected.
As the capture reagent, mouse antibody 1A3 labeled with biotin by a labeling kit (ChromaLink Biotin Protein LABELING Kit, Solulink) was used. The concentration thereof was controlled to be 700 nM with 0.1% PS20-containing PBS. The compounds for use in competitive inhibition, compound (1), compound (2), compound (7), compound (8), compound (9), compound (10), compound (11), Topotecan and Rubitecan were separately dissolved in DMSO. The solutions each was diluted with 10% or 20% DMSO in Rexxip HN (GYROS PROTEIN Technologies) to prepare 0, 1 and 100 μg/mL dilution solutions. To each of them, the 700 nM mouse antibody 1A3 solution was added in an equal amount. The mixture was stirred and allowed to react at room temperature in a dark place for one hour or more. The concentration of HER2-ADC (I) was controlled with Rexxip HN to be 0, 0.244, 0.977, 3.91, 15.6, 62.5, 250 and 1000 ng/mL. As the detection reagent, Mouse Anti-(Anti-HER2 Ab) idiotype Ab (13C1) (IBL) was labeled by DyLight650 (registered trademark) labeling kit and put in use. The concentration thereof was controlled with Rexxip F (GYROS PROTEIN Technologies) to be 10 nM. The above solution was set at Gyrolab xP workstation and measurement was carried out by use of Gyrolab Bioaffy 200 at 200-3W-002-A (PMT5). The regression analysis was carried out by use of Gyrolab Evaluator 3.4.0.24 in 4-parametric logistic model (weight: Response). The calibration curve of HER2-ADC (I) was prepared per concentration of the competitive inhibition compound. The inhibition rate (%) was calculated by comparing the response at an HER2-ADC (I) concentration of 250 ng/mL to that of the case where no compound was added (concentration 0 ng/mL).

[2] = tested on: mouse antibody 1A3; assay: Specificity of mouse antibody 1A3: immunostaining after mixing with compound (Example 9 ii); type: binding; details: CDH6-ADC (I) treated NOG mouse tumor; blending ratio 1A3: compound (2): SN-38 0.1:0.04:0.03
Method: To a highly immunodeficient mouse (NOG mouse), a human tumor taken from a patient with clear cell renal cell carcinoma was subcutaneously transplanted. After CDH6-ADC (I) was administered, the tumor tissue was taken to prepare paraffin-embedded specimens. Then, stainability of mouse antibody 1A3 was examined. The tumor tissue was taken from an NOG mouse to which CDH6-ADC (I) was not administered and used as a negative control. Deparaffinization and antigen activation were carried out using Autostainer Link pretreatment system (PT Link, manufactured by DAKO) and an antigen retrieval solution (Target Retrieval Solution Low pH, manufactured by DAKO) at 97° C. for 40 minutes. The following staining operation was carried out using an automatic staining device (Dako Autostainer Link 48: manufactured by DAKO) at room temperature. After washing once with EnVision FLEX WASH BUFFER (manufactured by DAKO), Peroxidase Block 3% H2O2 (manufactured by DAKO) was added; incubation was carried out for 5 minutes; and washing was carried out once with EnVision FLEX WASH BUFFER. Protein Block serum free (manufactured by DAKO) was added; incubation was carried out for 30 minutes; and liquid was removed by air blow. Mouse antibody 1A3 was diluted with REAL Antibody Diluent (manufactured by DAKO) to fall in the range of 0.03 μg/mL to 0.3 μg/mL and reaction was made for 60 minutes. […]

[3] = tested on: mouse antibody 1A3; assay: Specificity of mouse antibody 1A3: immunostaining after mixing with compound (Example 5 ii); type: binding; details: Example 5, written in present tense; blending ratio 0.1:0.04:0.03
Method: To a highly immunodeficient mouse (NOG mouse), a human-derived tumor is subcutaneously transplanted. After the antibody-drug conjugate according to the present invention is administered, the tumor tissue is taken to prepare paraffin-embedded specimens. Then, stainability of a mouse antibody 1A3 is examined. The tumor tissue is taken from a NOG mouse to which the antibody-drug conjugate according to the present invention is not administered and used as a negative control. Deparaffinization and antigen activation are carried out using Autostainer Link pretreatment system (PT Link, manufactured by DAKO) and an antigen retrieval solution (Target Retrieval Solution Low pH, manufactured by DAKO). The following staining operation is carried out using an automatic staining device (Dako Autostainer Link 48: Manufactured by DAKO). After washing with EnVision FLEX WASH BUFFER (manufactured by DAKO), Peroxidase Block 3% H2O2 (manufactured by DAKO) is add; incubation is carried out; and washing is carried out with EnVision FLEX WASH BUFFER. Protein Block serum free (manufactured by DAKO) is added; incubation s carried out; and liquid is removed by air blow. Mouse antibody 1A3 is diluted with REAL Antibody Diluent (manufactured by DAKO) and reacted. […]

[4] = biological target: T1, topoisomerase I (Homo sapiens, UniProt P11387); details: cited from earlier work
T1 sequence (P11387 1-765): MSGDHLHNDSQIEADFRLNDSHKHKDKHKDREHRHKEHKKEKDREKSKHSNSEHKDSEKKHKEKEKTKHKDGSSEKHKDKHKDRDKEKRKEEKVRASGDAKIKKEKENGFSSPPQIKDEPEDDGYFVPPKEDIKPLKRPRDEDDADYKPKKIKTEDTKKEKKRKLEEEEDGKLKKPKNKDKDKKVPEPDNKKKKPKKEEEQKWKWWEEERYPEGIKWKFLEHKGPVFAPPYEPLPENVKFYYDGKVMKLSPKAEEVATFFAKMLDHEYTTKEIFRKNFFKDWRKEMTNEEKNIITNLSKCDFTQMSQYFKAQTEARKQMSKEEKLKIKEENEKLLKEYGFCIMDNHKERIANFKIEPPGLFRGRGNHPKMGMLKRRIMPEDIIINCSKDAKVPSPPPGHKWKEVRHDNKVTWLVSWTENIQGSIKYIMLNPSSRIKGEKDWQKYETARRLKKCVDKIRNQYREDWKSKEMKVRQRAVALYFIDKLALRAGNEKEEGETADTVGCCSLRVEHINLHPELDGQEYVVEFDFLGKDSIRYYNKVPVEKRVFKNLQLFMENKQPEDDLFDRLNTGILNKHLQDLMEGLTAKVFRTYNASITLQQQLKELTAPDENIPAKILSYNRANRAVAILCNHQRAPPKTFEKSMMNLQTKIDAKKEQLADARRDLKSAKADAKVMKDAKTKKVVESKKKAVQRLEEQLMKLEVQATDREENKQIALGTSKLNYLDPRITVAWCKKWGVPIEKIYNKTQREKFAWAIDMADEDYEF

| SMILES | competitive inhibition of recognition of mouse antibody 1A3 to HER2-ADC (I) (inhibition rate, FIG. 41) [1] | staining ability of mouse antibody 1A3 after mixing with the compound [2] | stainability of mouse antibody 1A3 after mixing with the compound [3] | topoisomerase I inhibitory activity [4] |
| --- | --- | --- | --- | --- |
| CC[C@@]1(O)C(=O)OCc2c1cc1n(c2=O)Cc2c-1nc1cc(F)c(C)c3c1c2[C@@H](NC(=O)CO)CC3 [compound (2)] | strong competitive inhibition | disappeared | disappears | topoisomerase I inhibitory effect |
| CCc1c2c(nc3ccc(O)cc13)-c1cc3c(c(=O)n1C2)COC(=O)[C@]3(O)CC [SN-38, reference compound] | – | did not disappear | does not disappear | – |
